# Measured values published in publication PMC11356900, “Synthesis, Structural Properties and Biological Activities of Novel Hydrazones of 2-, 3-, 4-Iodobenzoic Acid” (Molecules, 2024).
# Experiments:
# [1] = test system: A549 cell line; experiment: MTT cytotoxicity assay; type: cell-based
# Procedure: (§1) Among all the newly synthesized compounds, four compounds designated as: 14, 20, 21 and 27 were selected for further testing of their cytotoxic properties at the doses of 10, 25, 50, 75 and 100 µM. The cytotoxic properties of the above compounds were tested on the cancer cell lines, i.e., A549 (ECACC 86012804) (non-small-cell lung cancer), T47D (ECACC 85102201) (breast cancer), HeLa (ATCC® CCL-2™) (cervical cancer) and normal line L929 (NCTC clone 929, ATCC® CCL-1™) (mouse fibroblasts) using the MTT test for 24- and 48 h cultures.
# (§2) A549 (ECACC 86012804) (non-small-cell lung cancer) and T47D (ECACC 85102201) (breast cancer) were obtained from ECACC and propagated in Dulbecco’s Minimal Essential Medium, supplemented with 2 mM of glutamine, antibiotics ([…] streptomycin, 1% of 100 U/L penicillin) and 10% Fetal Bovine Serum. HeLa (ATCC® CCL-2™) (cervical cancer) and L929 (NCTC clone 929, ATCC® CCL-1™) (mouse fibroblasts) cell lines were obtained from ATCC and propagated in the Eagle Minimal Essential Medium supplemented with antibiotics ([…] streptomycin, 1% of 100 U/L penicillin) and with 10% and 5% FBS, respectively. The cell line was routinely grown in 75 cm^2 tissue culture flasks and kept in an incubator (humidified atmosphere of 5% CO2 at 37 °C). All examined cell lines were tested against mycoplasma contamination with microbiological assays.
# (§3) The cell viability of tested compounds (14, 20, 21 and 27) was assessed by the MTT assay. In brief, the exponentially growing cells were plated in 100 μL/well in 96-well plates. After 24 h culturing, the cells were treated with different concentrations of compounds (range 10–100 μM). After 24 and 48 h of incubation, 10 μL of 5 mg/mL MTT was added to each well and the plates were incubated at 37 °C for additional 4 h. The medium was subsequently removed, the purple-colored precipitates of formazan were dissolved in 100 μL of DMSO. The color absorbance was recorded at 570 nm using a BioTek model EPOCH ELISA plate reader. All experiments were performed in triplicate. The absorbance values were in the range of linearity of the Lambert–Beer law.
# [2] = test system: HeLa cell line; experiment: MTT cytotoxicity assay; type: cell-based
# Procedure: as §1, §2, §3
# [3] = test system: T47D cell line; experiment: MTT cytotoxicity assay; type: cell-based
# Procedure: as §1, §2, §3
# [4] = test system: Staphylococcus aureus ATCC 25923; experiment: Broth microdilution MIC/MBC; conditions: Staphylococcus aureus, ATCC25923
# [5] = test system: Staphylococcus aureus ATCC 29213; experiment: Broth microdilution MIC/MBC; conditions: ATCC29213
# [6] = test system: Staphylococcus aureus ATCC 43300; experiment: Broth microdilution MIC/MBC; conditions: ATCC43300 / MRSA
# [7] = test system: Bacillus subtilis ATCC 6633; experiment: Broth microdilution MIC/MBC; conditions: ATCC6633
# [8] = test system: Bacillus cereus ATCC 10876; experiment: Broth microdilution MIC/MBC; conditions: Bacillus cereus, ATCC10876
structure (smiles),measurement,setting,value
"O=C(N/N=C/c1cc(I)cc(I)c1O)c1ccccc1I [Compound 14, N-[(3,5-diiodo-2-hydroxyphenyl)methylidene]-2-iodobenzohydrazide]",cell proliferation,"[1]; A549, 24h, 10 µM, Repeat No 1",86%
same,cell proliferation,"[1]; A549, 24h, 10 µM, Repeat No 2",77%
same,cell proliferation,"[1]; A549, 24h, 25 µM, Repeat No 1",103%
same,cell proliferation,"[1]; A549, 24h, 25 µM, Repeat No 2",98%
same,cell proliferation,"[1]; A549, 24h, 50 µM, Repeat No 1",89%
same,cell proliferation,"[1]; A549, 24h, 50 µM, Repeat No 2",84%
same,cell proliferation,"[1]; A549, 24h, 75 µM, Repeat No 1",87%
same,cell proliferation,"[1]; A549, 24h, 75 µM, Repeat No 2",89%
same,cell proliferation,"[1]; A549, 24h, 100 µM, Repeat No 1",82%
same,cell proliferation,"[1]; A549, 24h, 100 µM, Repeat No 2",74%
same,cell proliferation,"[1]; A549, 48h, 10 µM, Repeat No 1",93%
same,cell proliferation,"[1]; A549, 48h, 10 µM, Repeat No 2",79%
same,cell proliferation,"[1]; A549, 48h, 25 µM, Repeat No 1",87%
same,cell proliferation,"[1]; A549, 48h, 25 µM, Repeat No 2",91%
same,cell proliferation,"[1]; A549, 48h, 50 µM, Repeat No 1",91%
same,cell proliferation,"[1]; A549, 48h, 50 µM, Repeat No 2",83%
same,cell proliferation,"[1]; A549, 48h, 75 µM, Repeat No 1",89%
same,cell proliferation,"[1]; A549, 48h, 75 µM, Repeat No 2",89%
same,cell proliferation,"[1]; A549, 48h, 100 µM, Repeat No 1",90%
same,cell proliferation,"[1]; A549, 48h, 100 µM, Repeat No 2",96%
same,cell proliferation,"[2]; 24h, 10 µM, Repeat No 1",88%
same,cell proliferation,"[2]; 24h, 10 µM, Repeat No 2",81%
same,cell proliferation,"[2]; 24h, 25 µM, Repeat No 1",93%
same,cell proliferation,"[2]; 24h, 25 µM, Repeat No 2",91%
same,cell proliferation,"[2]; 24h, 50 µM, Repeat No 1",88%
same,cell proliferation,"[2]; 24h, 50 µM, Repeat No 2",82%
same,cell proliferation,"[2]; 24h, 75 µM, Repeat No 1",98%
same,cell proliferation,"[2]; 24h, 75 µM, Repeat No 2",89%
same,cell proliferation,"[2]; 24h, 100 µM, Repeat No 1",82%
same,cell proliferation,"[2]; 24h, 100 µM, Repeat No 2",89%
same,cell proliferation,"[2]; 48h, 10 µM, Repeat No 1",76%
same,cell proliferation,"[2]; 48h, 10 µM, Repeat No 2",79%
same,cell proliferation,"[2]; 48h, 25 µM, Repeat No 1",82%
same,cell proliferation,"[2]; 48h, 25 µM, Repeat No 2",89%
same,cell proliferation,"[2]; 48h, 50 µM, Repeat No 1",85%
same,cell proliferation,"[2]; 48h, 50 µM, Repeat No 2",84%
same,cell proliferation,"[2]; 48h, 75 µM, Repeat No 1",77%
same,cell proliferation,"[2]; 48h, 75 µM, Repeat No 2",71%
same,cell proliferation,"[2]; 48h, 100 µM, Repeat No 1",81%
same,cell proliferation,"[2]; 48h, 100 µM, Repeat No 2",93%
same,cell proliferation,"[3]; 24h, 10 µM, Repeat No 1",86%
same,cell proliferation,"[3]; 24h, 10 µM, Repeat No 2",89%
same,cell proliferation,"[3]; 24h, 25 µM, Repeat No 1",71%
same,cell proliferation,"[3]; 24h, 25 µM, Repeat No 2",74%
same,cell proliferation,"[3]; 24h, 50 µM, Repeat No 1",79%
same,cell proliferation,"[3]; 24h, 50 µM, Repeat No 2",75%
same,cell proliferation,"[3]; 24h, 75 µM, Repeat No 1",87%
same,cell proliferation,"[3]; 24h, 75 µM, Repeat No 2",80%
same,cell proliferation,"[3]; 24h, 100 µM, Repeat No 1",79%
same,cell proliferation,"[3]; 24h, 100 µM, Repeat No 2",73%
same,cell proliferation,"[3]; 48h, 10 µM, Repeat No 1",71%
same,cell proliferation,"[3]; 48h, 10 µM, Repeat No 2",79%
same,cell proliferation,"[3]; 48h, 25 µM, Repeat No 1",81%
same,cell proliferation,"[3]; 48h, 25 µM, Repeat No 2",79%
same,cell proliferation,"[3]; 48h, 50 µM, Repeat No 1",81%
same,cell proliferation,"[3]; 48h, 50 µM, Repeat No 2",79%
same,cell proliferation,"[3]; 48h, 75 µM, Repeat No 1",72%
same,cell proliferation,"[3]; 48h, 75 µM, Repeat No 2",69%
same,cell proliferation,"[3]; 48h, 100 µM, Repeat No 1",74%
same,cell proliferation,"[3]; 48h, 100 µM, Repeat No 2",69%
same,melting point,,241 to 245 °C
same,MBC,[4],250 µg/mL
same,MIC,[4],125 µg/mL
same,MBC,[5],500 µg/mL
same,MIC,[5],125 µg/mL
same,MBC,[6],1000 µg/mL
same,MIC,[6],250 µg/mL
same,MBC,[7],500 µg/mL
same,MIC,[7],500 µg/mL
same,MBC,[8],250 µg/mL
same,MIC,[8],125 µg/mL
